Laboratory results taken from patent publication US7973061B2, “Anaplastic lymphoma kinase modulators and methods of use” (Exelixis, Inc., priority 2004, dated 2011).

Target: T1, ALK (baculovirus expressed human ALK kinase domain F1098-K1410) (Homo sapiens, UniProt Q9UM73)
T1 construct: human ALK kinase domain F1098-K1410; made in house
Assay: biochemical
Settings: not given
Procedure, shortened: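 Baculovirus-expressed human ALK kinase domain (F1098-K1410) was run in a luciferase-coupled chemiluminescent format, with ATP near its KM. After 2 h at ambient temperature, remaining ATP was read by luciferase-luciferin luminescence. IC50 came from 10-point dose-response curves fitted to a four-parameter equation with Hill slope.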

T1 sequence (Q9UM73 1098-1410): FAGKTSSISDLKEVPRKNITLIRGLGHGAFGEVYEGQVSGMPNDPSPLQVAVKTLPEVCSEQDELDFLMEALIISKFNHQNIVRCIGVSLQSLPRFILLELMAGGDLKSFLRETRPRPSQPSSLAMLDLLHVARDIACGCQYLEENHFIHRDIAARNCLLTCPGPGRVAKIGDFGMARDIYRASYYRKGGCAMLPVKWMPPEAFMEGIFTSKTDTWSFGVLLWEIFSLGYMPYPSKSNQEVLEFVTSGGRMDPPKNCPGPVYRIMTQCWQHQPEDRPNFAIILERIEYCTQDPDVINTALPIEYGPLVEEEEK

Structure (SMILES) | IC50 [nM]
O=C(COc1ccc(OC(F)(F)F)cc1)NCc1nc(C(=O)NCCOc2ccccc2)cs1 [Entry 122, N-[2-(phenyloxy)ethyl]-2-({[({4-[(trifluoromethyl)oxy]phenyl}oxy)acetyl]amino}methyl)-1,3-thiazole-4-carboxamide] | 50 to 500

Same assay, conditions: 1 μM ATP, 4 μM poly-AEKY, 12 nM ALK, 2 hours at ambient temperature; read-out: ALK IC50

Structure (SMILES) | IC50 [nM]
O=C(COc1ccc(OC(F)(F)F)cc1)NCc1nc(C(=O)NCC2CC2)cs1 [Entry 216, N-(cyclopropylmethyl)-2-({[({4-[(trifluoromethyl)oxy]phenyl}oxy)acetyl]amino}methyl)-1,3-thiazole-4-carboxamide] | 50 to 500
COc1ccccc1CCNC(=O)c1csc(CNC(=O)COc2ccc(OC(F)(F)F)cc2)n1 [Entry 80, N-{2-[2-(methyloxy)phenyl]ethyl}-2-({[({4-[(trifluoromethyl)oxy]phenyl}oxy)acetyl]amino}methyl)-1,3-thiazole-4-carboxamide] | 50 to 500
CC1CC(C)CN(C(=O)c2csc(CNC(=O)COc3ccc(OC(F)(F)F)cc3)n2)C1 (stereo not drawn) [Entry 282, N-({4-[(3,5-dimethylpiperidin-1-yl)carbonyl]-1,3-thiazol-2-yl}methyl)-2-({4-[(trifluoromethyl)oxy]phenyl}oxy)acetamide] | 500 to 2000
CC(C)c1ccc(OCC(=O)NCc2nc(C(=O)NCCc3cccc(Cl)c3)cs2)cc1 [Entry 72, N-[2-(3-chlorophenyl)ethyl]-2-{[({[4-(1-methylethyl)phenyl]oxy}acetyl)amino]methyl}-1,3-thiazole-4-carboxamide] | 50 to 500
COc1ccccc1CNC(=O)c1csc(CNC(=O)COc2ccc(C(C)C)cc2)n1 [Entry 118, 2-{[({[4-(1-methylethyl)phenyl]oxy}acetyl)amino]methyl}-N-{[2-(methyloxy)phenyl]methyl}-1,3-thiazole-4-carboxamide] | 50 to 500
O=C(COc1ccc(Br)cc1)NCc1nc(C(=O)NCCc2cccc(Cl)c2)cs1 [Entry 109, 2-[({[(4-bromophenyl)oxy]acetyl}amino)methyl]-N-[2-(3-chlorophenyl)ethyl]-1,3-thiazole-4-carboxamide] | 50 to 500
O=C(COc1ccc(OC(F)(F)F)cc1)NCc1nc(C(=O)NCc2ccc(F)c(C(F)(F)F)c2)cs1 [Entry 174, N-{[4-fluoro-3-(trifluoromethyl)phenyl]methyl}-2-({[({4-[(trifluoromethyl)oxy]phenyl}oxy)acetyl]amino}methyl)-1,3-thiazole-4-carboxamide] | 50 to 500
C#CC(CC)(CC)NC(=O)c1csc(CNC(=O)COc2ccc(OC(F)(F)F)cc2)n1 [Entry 147, N-(1,1-diethylprop-2-yn-1-yl)-2-({[({4-[(trifluoromethyl)oxy]phenyl}oxy)acetyl]amino}methyl)-1,3-thiazole-4-carboxamide] | 50 to 500
O=C(COc1ccc(OC(F)(F)F)cc1)NCc1nc(C(=O)N2CCN(c3ccccn3)CC2)cs1 [Entry 279, N-({4-[(4-pyridin-2-ylpiperazin-1-yl)carbonyl]-1,3-thiazol-2-yl}methyl)-2-({4-[(trifluoromethyl)oxy]phenyl}oxy)acetamide] | 500 to 2000
Cc1cc(Cl)ccc1CNC(=O)c1csc(CNC(=O)COc2ccc(OC(F)(F)F)cc2)n1 [Entry 150, N-[(4-chloro-2-methylphenyl)methyl]-2-({[({4-[(trifluoromethyl)oxy]phenyl}oxy)acetyl]amino}methyl)-1,3-thiazole-4-carboxamide] | 50 to 500
O=C(COc1ccc(OC(F)(F)F)cc1)NCc1nc(C(=O)NCc2ccc(F)cc2C(F)(F)F)cs1 [Entry 244, N-{[4-fluoro-2-(trifluoromethyl)phenyl]methyl}-2-({[({4-[(trifluoromethyl)oxy]phenyl}oxy)acetyl]amino}methyl)-1,3-thiazole-4-carboxamide] | 500 to 2000
O=C(COc1ccc(OC(F)(F)F)cc1)NCc1nc(C(=O)N2Cc3ccccc3C2)cs1 [Entry 3, N-{[4-(1,3-dihydro-2H-isoindol-2-ylcarbonyl)-1,3-thiazol-2-yl]methyl}-2-({4-[(trifluoromethyl)oxy]phenyl}oxy)acetamide] | < 50
CCCCNC(=O)c1csc(CNC(=O)COc2ccc(OC(F)(F)F)cc2)n1 [Entry 177, N-butyl-2-({[({4-[(trifluoromethyl)oxy]phenyl}oxy)acetyl]amino}methyl)-1,3-thiazole-4-carboxamide] | 50 to 500
O=C(COc1ccc(OC(F)(F)F)cc1)NCc1nc(C(=O)NCc2cccnc2)cs1 [Entry 241, N-(pyridin-3-ylmethyl)-2-({[({4-[(trifluoromethyl)oxy]phenyl}oxy)acetyl]amino}methyl)-1,3-thiazole-4-carboxamide] | 500 to 2000
O=C(NCCc1cccc(Cl)c1)c1csc(CNC(=O)c2cccnc2Oc2ccc(F)cc2)n1 [Entry 141, N-{[4-({[2-(3-chlorophenyl)ethyl]amino}carbonyl)-1,3-thiazol-2-yl]methyl}-2-[(4-fluorophenyl)oxy]pyridine-3-carboxamide] | 50 to 500
O=C(COc1ccc(OC(F)(F)F)cc1)NCc1nc(C(=O)NCc2cc(Cl)cc(Cl)c2)cs1 [Entry 69, N-[(3,5-dichlorophenyl)methyl]-2-({[({4-[(trifluoromethyl)oxy]phenyl}oxy)acetyl]amino}methyl)-1,3-thiazole-4-carboxamide] | 50 to 500

Structure (SMILES) | IC50 [nM]
Cc1cccc(CNC(=O)c2csc(CNC(=O)COc3ccc(OC(F)(F)F)cc3)n2)c1C [Entry 46, N-[(2,3-dimethylphenyl)methyl]-2-({[({4-[(trifluoromethyl)oxy]phenyl}oxy)acetyl]amino}methyl)-1,3-thiazole-4-carboxamide] | 50 to 500
Cc1ccc(CCNC(=O)c2csc(CNC(=O)COc3ccc(OC(F)(F)F)cc3)n2)cc1C [Entry 56, N-[2-(3,4-dimethylphenyl)ethyl]-2-({[({4-[(trifluoromethyl)oxy]phenyl}oxy)acetyl]amino}methyl)-1,3-thiazole-4-carboxamide] | 50 to 500
CC(C)CCCCCCNC(=O)c1csc(CNC(=O)COc2ccc(OC(F)(F)F)cc2)n1 [Entry 189, N-(7-methyloctyl)-2-({[({4-[(trifluoromethyl)oxy]phenyl}oxy)acetyl]amino}methyl)-1,3-thiazole-4-carboxamide] | 50 to 500
NS(=O)(=O)c1ccc(CCNC(=O)c2coc(CNC(=O)COc3ccc(OC(F)(F)F)cc3)n2)cc1 [Entry 92, N-{2-[4-(aminosulfonyl)phenyl]ethyl}-2-({[({4-[(trifluoromethyl)oxy]phenyl}oxy)acetyl]amino}methyl)-1,3-oxazole-4-carboxamide] | 50 to 500
O=C(COc1ccc(OC(F)(F)F)cc1)NCc1nc(C(=O)NCCc2ccc(Cl)cc2)co1 [Entry 246, N-[2-(4-chlorophenyl)ethyl]-2-({[({4-[(trifluoromethyl)oxy]phenyl}oxy)acetyl]amino}methyl)-1,3-oxazole-4-carboxamide] | 500 to 2000
O=C(COc1ccc(OC(F)(F)F)cc1)NCc1nc(C(=O)NCc2ccccc2C(F)(F)F)cs1 [Entry 63, 2-({[({4-[(trifluoromethyl)oxy]phenyl}oxy)acetyl]amino}methyl)-N-{[2-(trifluoromethyl)phenyl]methyl}-1,3-thiazole-4-carboxamide] | 50 to 500
Cc1ccc([C@H](C)NC(=O)c2csc(CNC(=O)COc3ccc(OC(F)(F)F)cc3)n2)cc1 [Entry 162, N-[(1S)-1-(4-methylphenyl)ethyl]-2-({[({4-[(trifluoromethyl)oxy]phenyl}oxy)acetyl]amino}methyl)-1,3-thiazole-4-carboxamide] | 50 to 500
O=C(COc1ccc(Br)cc1)NCc1nc(C(=O)NCCc2ccccc2F)cs1 [Entry 239, 2-[({[(4-bromophenyl)oxy]acetyl}amino)methyl]-N-[2-(2-fluorophenyl)ethyl]-1,3-thiazole-4-carboxamide] | 500 to 2000
CCCCC(CC)COCCCNC(=O)c1csc(CNC(=O)COc2ccc(OC(F)(F)F)cc2)n1 (stereo not drawn) [Entry 100, N-{3-[(2-ethylhexyl)oxy]propyl}-2-({[({4-[(trifluoromethyl)oxy]phenyl}oxy)acetyl]amino}methyl)-1,3-thiazole-4-carboxamide] | 50 to 500
O=C(COc1ccc(OC(F)(F)F)cc1)NCc1nc(C(=O)NCc2ccccc2)cs1 [Entry 194, N-(phenylmethyl)-2-({[({4-[(trifluoromethyl)oxy]phenyl}oxy)acetyl]amino}methyl)-1,3-thiazole-4-carboxamide] | 50 to 500
CSc1ccc(CC(=O)NCc2nc(C(=O)NCCc3cccc(Cl)c3)cs2)cc1 [Entry 232, N-[2-(3-chlorophenyl)ethyl]-2-[({[4-(methylthio)phenyl]acetyl}amino)methyl]-1,3-thiazole-4-carboxamide] | 500 to 2000
O=C(COc1ccc(OC(F)(F)F)cc1)NCc1nc(C(=O)NC(Cc2ccccc2)c2ccccc2)cs1 (stereo not drawn) [Entry 222, N-(1,2-diphenylethyl)-2-({[({4-[(trifluoromethyl)oxy]phenyl}oxy)acetyl]amino}methyl)-1,3-thiazole-4-carboxamide] | 500 to 2000
C[C@@H](CNC(=O)c1coc(CNC(=O)COc2ccc(OC(F)(F)F)cc2)n1)c1ccccc1 [Entry 128, N-[(2R)-2-phenylpropyl]-2-({[({4-[(trifluoromethyl)oxy]phenyl}oxy)acetyl]amino}methyl)-1,3-oxazole-4-carboxamide] | 50 to 500
COc1ccc(CNC(=O)c2csc(CNC(=O)COc3ccc(OC(F)(F)F)cc3)n2)c(OC)c1 [Entry 120, N-{[2,4-bis(methyloxy)phenyl]methyl}-2-({[({4-[(trifluoromethyl)oxy]phenyl}oxy)acetyl]amino}methyl)-1,3-thiazole-4-carboxamide] | 50 to 500
COc1cccc(OC)c1CNC(=O)c1csc(CNC(=O)COc2ccc(OC(F)(F)F)cc2)n1 [Entry 106, N-{[2,6-bis(methyloxy)phenyl]methyl}-2-({[({4-[(trifluoromethyl)oxy]phenyl}oxy)acetyl]amino}methyl)-1,3-thiazole-4-carboxamide] | 50 to 500
NCc1nc(C(=O)NCCc2cccc(Cl)c2)cs1 [Entry 300, 2-(aminomethyl)-N-[2-(3-chlorophenyl)ethyl]-1,3-thiazole-4-carboxamide] | > 2000
